Assay [1] deals with T1, Src kinase domain (chicken c-Src residues 251-533) (Gallus gallus, UniProt P00523).
T1 construct: chicken c-Src (residues 251-533 and residues 83-533); made in house
Briefly: Continuous spectrophotometric kinase activity assay. It counts as biochemical. The settings on record: Src kinase domain; 5 μM ATP, 100 μM Src optimal peptide.

Another assay deals with Src Thr338Ile. In words: Inhibition of Src gatekeeper mutant. The format is biochemical, chicken. The source says: (§1) Kinase domain constructs of human c-Abl (residues 229-512), chicken c-Src (residues 251-533 and residues 83-533), murine Lck (residues 227-509), and human Hck (residues 166-445) were expressed as previously described (Seeliger, Young et al. 2005; Seeliger, Nagar et al. 2007; the entire contents of each of which are incorporated by reference herein). Mutations were introduced into chicken c-Src (residues 251-533) (T338I, C277Q, L297M) by site-directed mutagenesis and verified by DNA sequencing.
For the FRET-based endpoint assay, kinase assays were performed using Invitrogen's Z′-LYTE kinase assay using the Tyr 02 substrate peptide (based upon the optimal Abl substrate peptide […]) according to the manufacturer's instructions. Assays were performed at near KM ATP concentrations for full-length c-Src and full-length c-Src T338I-50 μM and 7 μM, respectively.

For assay [2], the target named is T2, Src83-533 (chicken c-Src 83-533) (Gallus gallus, UniProt P00523).
T2 construct: the regulatory SH3 and SH2 domains (chicken c-Src 83-533); made in house
Briefly: Kinase activity assay with longer Src construct including SH3 and SH2 domains. It counts as biochemical. The settings on record: Src wild-type construct containing SH3 and SH2 domains.
Source text: as §1
In vitro kinase inhibition assays were performed using either a continuous spectrophotometric assay or a FRET-based endpoint assay. […]
To address this discrepancy, the two major differences between the fluorescent peptide-based Z′-LYTE assay and the continuous spectrophotometric assay employed here were investigated: the kinase construct used (full-length kinase in the Z-LYTE assay vs. kinase domain in the current study) and the peptide identity and concentration (5 μM fluorescent Abl-optimal substrate peptide in the previous study vs. 100 μM Src-optimal substrate peptide in the current study). […] The IC50 values determined for MC1.2 and MC4.1 were close to the concentration of the kinase used in the assay and therefore these values only represent an upper estimate of the real potency of these compounds.

The target in a further assay is T3, Src kinase domain (Gallus gallus, UniProt P00523).
T3 construct: chicken c-Src (residues 251-533 and residues 83-533); made in house
In words: Fluorescence anisotropy binding assay. Also noted: species or system chicken. The settings on record: fluorescein-labeled macrocycle, read-out: dissociation constant (KD). How it is done:
The change in fluorescence anisotropy of fluorescein-labeled MC1, MC4 and MC9 at 518 nm upon excitation at 492 nm was monitored with a HORIBA Jobin Yvon FluoroMax-4 (Edison, N.J.) spectrofluorimeter. Kinase was titrated to 0.5 μM of the fluorescently labeled macrocycle in 100 mM Tris pH 8.0, 10 mM MgCl2 at 25° C. After equilibration, the increase in the fluorescence anisotropy of the fluorescently labeled ligand was recorded and fitted against a quadratic binding equation in Kaleidagraph (Synergy Software, Reading Pa.) to yield the dissociation constant KD.
To clarify the inhibitory mechanism of the compounds further, the binding affinity of fluorescently labeled MC1, MC4, and MC9 to Src kinase domain was determined in a fluorescence anisotropy assay (FIG. 21).

A further assay has as its target Src kinase (Homo sapiens, UniProt P12931). Briefly: Z'-LYTE kinase assay (Invitrogen), Src. It counts as biochemical. The arrangement: full-length kinase in the Z-LYTE assay vs. kinase domain in the current study; purchased Millipore. Particulars: Z'-LYTE; ATP near KM. How it is done: Nine macrocycles enriched in the Src selection (FIG. 5) and synthesized as described above were assayed in vitro for the ability to inhibit Src kinase activity. Kinase activity was assayed in the presence of varying concentrations of macrocycle using the FRET-based Z′-LYTE assay (Invitrogen).
Src IC50 determinations and single-point inhibition measurements were performed using Invitrogen's Z′-LYTE Tyr 02 assay kit according to the manufacturer's protocols. All kinase assays were performed at ATP concentrations near KM,ATP values, except where noted otherwise. Active human Src kinase was obtained from Millipore. For kinome profiling and IC50 determinations against non-Src kinases, compounds were submitted to Invitrogen's SelectScreen Kinase Profiling Service.

Structures are written as SMILES. Read-outs that look alike come from different tables or passages of the source.

Src kinase, sequence (P12931 whole entry, the tested form may be a part): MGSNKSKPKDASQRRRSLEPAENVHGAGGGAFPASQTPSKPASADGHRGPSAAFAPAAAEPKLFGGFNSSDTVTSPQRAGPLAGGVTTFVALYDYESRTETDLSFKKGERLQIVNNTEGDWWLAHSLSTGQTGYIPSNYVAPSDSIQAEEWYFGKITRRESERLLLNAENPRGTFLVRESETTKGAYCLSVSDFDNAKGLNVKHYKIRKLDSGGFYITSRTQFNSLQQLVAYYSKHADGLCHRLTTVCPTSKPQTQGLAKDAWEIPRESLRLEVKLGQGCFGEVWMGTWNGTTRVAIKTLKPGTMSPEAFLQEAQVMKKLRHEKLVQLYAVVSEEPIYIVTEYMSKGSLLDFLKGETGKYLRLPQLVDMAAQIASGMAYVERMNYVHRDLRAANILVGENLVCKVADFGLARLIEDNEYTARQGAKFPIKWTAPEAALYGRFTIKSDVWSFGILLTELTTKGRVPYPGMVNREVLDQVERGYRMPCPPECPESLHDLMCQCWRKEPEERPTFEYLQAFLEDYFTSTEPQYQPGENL

As to `NC(=O)[C@@H]1CCNC(=O)[C@H](CCCNC(=O)c2cnccn2)NC(=O)[C@H](CC2CCCCC2)NC(=O)[C@H](C/C=C/c2ccccc2)NC(=O)/C=C\C(=O)N1` [cis-A11-B8-C10-D7], the half-inhibitory concentration (IC50) (in general, the concentration at which inhibition is half-maximal) came out at 69 µM in assay [1]; 1 µM in the assay on Src Thr338Ile (Src Thr338Ile containing SH3 and SH2 domains); 0.39 µM in assay [2]; 25 µM against Src kinase. Besides, the “lower potency against gatekeeper mutant than against Src wild-type” value with Src Thr338Ile is given as “about 3 fold”. The results for the Kd on Src kinase domain (250 μM AMP-PNP) and on Src kinase domain (no competitor) were 12.6 µM and 3.6 µM, respectively.

Values taken from patent publication US8975232B2, “Macrocyclic kinase inhibitors and uses thereof” (President and Fellows of Harvard College, priority 2010, dated 2015).
